Assays:
[1] = tested on: M249R4 cells; assay: HSLCI kinase inhibitor screen in Vemurafenib-resistant melanoma; assay type: cell-based, human
Procedure: (§1) Kinase inhibitor screen. 1× Dose Determination: For each inhibitor, a 1× dose was calculated. Briefly, recommended clinical doses were obtained from published package inserts. Doses were matched to peak serum concentrations (Cmax (ng/mL)) for each inhibitor as measured in clinical trials in which the recommended doses were utilized. Using each drugs' molecular weight, peak serum concentration values were converted to uM units and designated as 1×. […] Cobimetinib and Binimetinib were supplied as dry powders and suspended in DMSO to a final stock concentration of 10 mM upon receipt. Cell Preparation and Dosing: M249R4 cells were plated in a 24-well optical glass-bottomed plate (Cat. #P24-0-N, Cellvis) at 1×10^4 cells/ml (total of 1 mL in each of 24 wells) in media (DMEM, 10% Fetal Bovine Serum, 2 mM L-Glutamine) containing 1 uM Vemurafenib. Plated cells were allowed to adhere overnight at 37° C., 5% CO2. All cells were washed with 1× phosphate-buffered saline, pH 7.4, and provided with fresh media. Immediately following washing and feeding, cells were dosed with inhibitors at dose-escalating concentrations and incubated under standard cell culture conditions for 24 hours. After incubation, cells were imaged for 10 hours using the HSLCI system.
(§2) These inhibitors target a spectrum of kinases (Table 2). […] For each targeted kinase inhibitor, a 1× dose was calculated to match the peak tolerated serum concentration (Cmax (ng/mL)), as measured in clinical trials. Our first assay screened all seven inhibitors at several concentrations to identify those that elicited the most apparent reduction in cell growth rates.

[2] = at recommended clinical dose, clinical trials; cited from earlier work
[3] = Peak serum concentration (Cmax) in clinical trials at recommended clinical dose; assay type: in vivo, human; conditions: 1× dose for the screen
Procedure: as §1, §2

[4] = tested on: all three parental lines (M229P, M238P, M249P); assay: HSLCI population kinetic response (biomass growth rate); assay type: cell-based, human; conditions: 5 μM Vemurafenib
From the text: Live Cell Interferometry. The standard and high speed LCI platforms were based on a custom built inverted microscope, coupled to a quantitative phase detecting camera (SID4BIO, Phasics) which consists of a modified Shack-Hartman mask, fitted to a 1600×1200 pixel CCD camera [Imprex B1621]). The phase calculation down samples the raw image to 400×300 pixels, resulting in effective pixel sizes between 1.3 μm and 2.5 μm, depending on the objective. […] In both the standard and high speed systems, position was determined by maximizing contrast during a vertical scan though focus. […]
Image analysis. Raw interferograms were converted to phase images using the manufacturer's software and analyzed with our custom MATLAB script (The MathWorks). […] Using the resulting flattened phase images, single cells segmented from the background using Canny spatial-derivative edge detection algorithms, their locations, and optical volumes were recorded. […] Single cell growth tracks were quality filtered using an upper cutoff of +1-15% uncertainty (s.d. of residuals) in the calculated growth rate, as determined by linear fitting the biomass versus time data. […]

[5] = second assay, up to 10× concentration

Row | uM (1×) (peak serum concentration converted using molecular weight) [3] [µM] | Compound | dose response ([1]; first assay) | Serum Conc. (ng/mL) (peak serum concentration, Cmax) [2] | time by which significant growth rate reduction occurred [4] [h] | dose response ([1]; second assay, dosing range 0.05×-1×) | growth rate response ([1]; first assay, 0.1×) | growth rate response ([1]; second assay, doses greater than 0.1×) | cell killing [1, 5] | dose response [1, 5]
1 | 0.58 | Cn1cnc2c(F)c(Nc3ccc(Br)cc3F)c(C(=O)NOCCO)cc21 [Binimetinib] | slight dose response | 257.0 | – | – | – | – | – | –
2 | 9.80 | CCCS(=O)(=O)Nc1ccc(F)c(C(=O)c2c[nH]c3ncc(-c4ccc(Cl)cc4)cc23)c1F [Vemurafenib] | – | 4800 | ≤ 20 | – | – | – | – | –
3 | 0.51 | O=C(c1ccc(F)c(F)c1Nc1ccc(I)cc1F)N1CC(O)([C@@H]2CCCCN2)C1 [Cobimetinib] | – | 273 | – | robust dose responses | – | – | – | –
4 | 2.02 | CC(C)(C)c1nc(-c2cccc(NS(=O)(=O)c3c(F)cccc3F)c2F)c(-c2ccnc(N)n2)s1 [Dabrafenib] | – | 1050 | – | – | slight reduction in growth rate | reduced growth rates | nor does it kill cells | does not elicit a dose response
5 | 2.55 | Cn1cnc2c(F)c(Nc3ccc(Br)cc3Cl)c(C(=O)NOCCO)cc21 [Selumetinib] | – | 1165 | – | – | – | – | – | –
6 | 0.04 | CC(=O)Nc1cccc(-n2c(=O)n(C3CC3)c(=O)c3c(Nc4ccc(I)cc4F)n(C)c(=O)c(C)c32)c1 [Trametinib] | – | 22.2 | – | – | – | – | – | –

Source: patent US20210278393A1, “METHOD FOR MEASURING SINGLE-CELL BIOMASS TO PREDICT CLINICAL OUTCOMES FOR STEM CELL TRANSPLANT PATIENTS” (VIRGINIA COMMONWEALTH UNIVERSITY, priority 2016, published 2021)
